Data as given in US20210379066A1, “COMBINATIONS OF POSITIVE ALLOSTERIC MODULATORS AND NICOTINIC ACETYLCHOLINE RECEPTOR AGONISTS FOR TREATING OCULAR CONDITIONS” (Oyster Point Pharma, Inc., priority 2018, published 2021).
“Also recorded” adds a separate entry of the source. Structures can show the parent of a compound that is named as a salt. One block for each molecule: values may come before it.

What was measured:
Assay type in all cases: cell-based
[1] = target: T1, human alpha4beta2 nAChRs (Homo sapiens, UniProt P17787+P43681); test: Positive allosteric modulation of agonist-evoked currents, two-electrode voltage clamp in Xenopus oocytes (Example 1)
T1 construct: expressed in transfected cells; host or cells: Xenopus laevis oocytes (cDNA injection)
T1 sequence (P43681 29-627 limits assumed): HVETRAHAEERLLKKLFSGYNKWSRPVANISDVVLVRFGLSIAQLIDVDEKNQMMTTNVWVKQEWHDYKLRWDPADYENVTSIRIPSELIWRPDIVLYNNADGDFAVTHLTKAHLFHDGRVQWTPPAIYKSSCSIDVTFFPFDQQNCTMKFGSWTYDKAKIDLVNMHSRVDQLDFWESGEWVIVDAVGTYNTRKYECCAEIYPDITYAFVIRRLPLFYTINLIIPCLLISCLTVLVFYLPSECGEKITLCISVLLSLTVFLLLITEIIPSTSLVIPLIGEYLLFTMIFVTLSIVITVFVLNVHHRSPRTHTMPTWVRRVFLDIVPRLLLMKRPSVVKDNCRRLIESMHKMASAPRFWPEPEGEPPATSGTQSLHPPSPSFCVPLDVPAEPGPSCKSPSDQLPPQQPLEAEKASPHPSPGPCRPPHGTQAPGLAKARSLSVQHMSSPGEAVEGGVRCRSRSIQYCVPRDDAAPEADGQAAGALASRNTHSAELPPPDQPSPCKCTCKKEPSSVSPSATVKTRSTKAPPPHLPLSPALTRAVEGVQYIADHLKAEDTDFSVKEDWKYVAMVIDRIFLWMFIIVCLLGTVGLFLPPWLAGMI
T1 sequence (P17787 26-502): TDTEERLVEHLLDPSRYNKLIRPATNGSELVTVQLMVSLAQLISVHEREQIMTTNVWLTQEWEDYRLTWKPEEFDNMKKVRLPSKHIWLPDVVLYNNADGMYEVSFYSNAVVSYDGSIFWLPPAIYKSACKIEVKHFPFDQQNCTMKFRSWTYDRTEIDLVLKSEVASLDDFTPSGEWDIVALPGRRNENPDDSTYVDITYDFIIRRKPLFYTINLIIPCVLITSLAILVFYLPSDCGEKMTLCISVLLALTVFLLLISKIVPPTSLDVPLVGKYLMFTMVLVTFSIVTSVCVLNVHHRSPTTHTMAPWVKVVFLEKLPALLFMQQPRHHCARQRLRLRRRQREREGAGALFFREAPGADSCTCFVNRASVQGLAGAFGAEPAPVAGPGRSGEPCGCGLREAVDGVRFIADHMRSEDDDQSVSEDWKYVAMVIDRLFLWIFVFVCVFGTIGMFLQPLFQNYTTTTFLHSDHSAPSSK
Procedure: • Acetylcholine chloride • 100 mM stock solution in bi-distilled water 1.3 Test system • Apparatus: Automated Injection and Recording Apparatus, HiQScreen • Species of donor animals: Xenopus • Strain of animals: Laevis • Origin (supplier) of animals: HiQScreen Sàrl, Geneva • Body Weight of animals: 150 g to 300 g • Animal maintenance 3 to 5 per vivarium • Room temperature: 20-22° C. • Lighting times: Vivarium were exposed to daylight with additional artificial lighting (6 am-8 pm in summer; 8 am-7 pm in winter). • Food: Food pellets, ad libitum • Source of biological material • and isolation procedure: Abdominal incision to remove ovaries • Experimental conditions in Oocyte incubation: Barth solution containing in mM NaCl 88, • vitro: […] OR2 medium containing in mM: […] Two-electrode voltage clamp, using proprietary automated system equipped with a Geneclamp amplifier (Axon Instrument, Foster City, Calif., USA), or HiClamp (Multichannel Systems, Germany) Abbreviations: Ach, Acetylcholine; nAChR, Nicotinic acetylcholine receptor; SEM, Standard error of the mean; PAM, Positive allosteric modulator All experiments were carried out at human nAChRs expressed in Xenopus oocytes using the method of cDNA expression. Xenopus oocytes were prepared and injected using standard procedures. Briefly, ovaries were harvested from Xenopus Laevis females that have been deeply anesthetized by cooling at 4° C. and Tricaine methanesulfonate (MS-222 at a concentration of 150 mg/L) in sodium bicarbonate (300 mg/L). Once anesthetized the animal was decapitated and pithed following the rules of animal rights from the Geneva canton. […] All recordings were performed at 18° C. and cells superfused with OR2 medium containing in mM: […] Currents evoked by ACh or other agonists were recorded using an automated process equipped with standard two-electrode voltage-clamp configuration (TEVC). Data were captured and analyzed using a HiQScreen proprietary data acquisition and analysis software running under Matlab (Mathworks Inc.). […] Compounds were dissolved in OR2 as stock solution (1 mM) and the final dilution to the desired concentration was made on the day of the experiment. Injections of cDNAs encoding for the human alpha4beta2, were performed in at least 95 oocytes were performed using a proprietary automated injection device (Hogg et al., J. Neurosci. Methods, 2008) and receptor expression examined at least two days later. Oocytes were poked with two electrodes and their membrane potential maintained, unless indicated, at −80 mV throughout the experiment. A protocol to determine the allosteric modulation at the alpha4beta2 nAChRs in the oocytes expressing the receptor was developed. Oocytes expressing alpha4beta2 nAChRs were exposed to increasing concentrations of ACh while the response was evaluated. This was repeated with the addition of a fixed concentration of the allosteric modulator. The current evoked from the exposure to the agonist with the modulator was recorded and compared to currents evoked in the absence of the modulator. To assess the effects of positive allosteric modulators (Br-PBTC and NS-9283) a protocol of determination of the concentration activation curve in absence and presence of the PAM was designed. […] To assess the positive allosteric modulator effects of NS-9283 at the compound 1 hemi-galactarate dihydrate the same experimental protocol was conducted using 1 μM of the modulator. […] To further evaluate the PAM effects, the modulation was measured either as a first application and compared versus the subsequent agonist evoked response or, vice versa, by first exposing the cell to the agonist alone and then to the PAM and the agonist applied during a sustained PAM exposure. […] The same experiment was then conducted for compound 1 hemi-galactarate dihydrate as the agonist and Br-PBTC as the modulator or NS-9283 as the modulator.

[2] = target: T1, human alpha4beta2 nAChRs; test: Desensitization by sustained (1 hour) agonist exposure and recovery, without and with PAM, Xenopus oocytes (Example 1)
[3] = target: T2, human nAChR alpha3alpha5beta4 (Homo sapiens, UniProt P30532+P30926+P32297); test: Agonist activity, two-electrode voltage clamp in Xenopus oocytes (Examples 2 and 5); details: for agonist character: versus ACh response, mono-citrate
T2 construct: expressed in transfected cells; host or cells: Xenopus laevis oocytes (cDNA injection)
T2 sequence (P32297 32-505): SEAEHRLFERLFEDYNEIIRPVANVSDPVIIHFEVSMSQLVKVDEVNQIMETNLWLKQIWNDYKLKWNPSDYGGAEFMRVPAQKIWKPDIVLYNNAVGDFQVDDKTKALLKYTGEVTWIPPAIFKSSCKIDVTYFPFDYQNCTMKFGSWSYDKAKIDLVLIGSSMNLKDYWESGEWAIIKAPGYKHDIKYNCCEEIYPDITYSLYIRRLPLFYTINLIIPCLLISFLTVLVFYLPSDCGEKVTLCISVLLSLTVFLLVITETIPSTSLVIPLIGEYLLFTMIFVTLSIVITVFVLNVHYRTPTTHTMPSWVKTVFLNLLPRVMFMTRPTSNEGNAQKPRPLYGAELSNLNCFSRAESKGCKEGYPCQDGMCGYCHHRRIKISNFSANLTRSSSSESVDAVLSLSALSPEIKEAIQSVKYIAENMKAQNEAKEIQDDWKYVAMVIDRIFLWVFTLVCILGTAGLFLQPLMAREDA
T2 sequence (P30532 23-468): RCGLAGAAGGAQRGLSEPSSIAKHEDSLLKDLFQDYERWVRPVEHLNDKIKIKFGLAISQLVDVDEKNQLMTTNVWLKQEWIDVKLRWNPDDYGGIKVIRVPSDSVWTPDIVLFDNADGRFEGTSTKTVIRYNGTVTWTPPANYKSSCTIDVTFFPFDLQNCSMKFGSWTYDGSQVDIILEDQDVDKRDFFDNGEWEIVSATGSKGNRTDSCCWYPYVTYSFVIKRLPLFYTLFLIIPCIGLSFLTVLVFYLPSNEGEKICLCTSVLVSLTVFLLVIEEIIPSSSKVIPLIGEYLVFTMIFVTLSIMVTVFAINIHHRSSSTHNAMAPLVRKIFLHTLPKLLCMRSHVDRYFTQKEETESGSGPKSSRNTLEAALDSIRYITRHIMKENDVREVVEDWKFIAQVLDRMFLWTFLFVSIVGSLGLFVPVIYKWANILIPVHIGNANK
T2 sequence (P30926 22-498): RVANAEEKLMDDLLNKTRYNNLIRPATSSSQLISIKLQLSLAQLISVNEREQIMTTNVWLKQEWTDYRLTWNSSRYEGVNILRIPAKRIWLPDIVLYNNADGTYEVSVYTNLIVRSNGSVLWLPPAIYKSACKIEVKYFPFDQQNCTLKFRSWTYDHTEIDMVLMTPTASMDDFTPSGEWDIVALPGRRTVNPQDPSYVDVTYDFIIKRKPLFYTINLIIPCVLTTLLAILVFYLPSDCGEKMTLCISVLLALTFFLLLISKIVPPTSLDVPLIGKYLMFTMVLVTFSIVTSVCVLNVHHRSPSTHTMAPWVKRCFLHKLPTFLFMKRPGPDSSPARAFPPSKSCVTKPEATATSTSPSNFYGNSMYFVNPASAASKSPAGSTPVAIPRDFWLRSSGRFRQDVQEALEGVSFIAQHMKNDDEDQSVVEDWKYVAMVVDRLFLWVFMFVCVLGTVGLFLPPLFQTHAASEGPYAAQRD
Procedure: (§1) All experiments were carried out at human nAChRs expressed in Xenopus oocytes using the method of cDNA expression. Xenopus oocytes were prepared and injected using standard procedures.
(§2) Briefly, ovaries were harvested from Xenopus Laevis females that have been deeply anesthetized by cooling at 4° C. and Tricaine methanesulfonate (MS-222 at a concentration of 150 mg/L) in sodium bicarbonate (300 mg/L). Once anesthetized the animal was decapitated and pithed following the rules of animal rights from the Geneva canton. A small piece of ovary was isolated for immediate preparation while the remaining part was placed at 4° C. in a sterile Barth solution containing in mM NaCl 88, KCl 1, NaHCO32.4, HEPES 10, MgSO4.7H2O 0.82, Ca(NO3)2.4H2O 0.33, CaCl2.6H2O 0.41, at pH 7.4, and supplemented with 20 μg/ml of kanamycin, 100 unit/ml penicillin. All recordings were performed at 18° C. and cells superfused with OR2 medium containing in mM: NaCl 88, KCl 2.5, HEPES 5, CaCl2.2H2O 1.8, MgCl2.6H2O 1, pH 7.4.
(§3) Currents evoked by ACh or other agonists were recorded using an automated process equipped with standard two-electrode voltage-clamp configuration (TEVC). Data were captured and analyzed using a HiQScreen proprietary data acquisition and analysis software running under Matlab (Mathworks Inc.).
(§4) See Example 1. […] The test concentration of acetylcholine chloride was 1280 micromolar.
(§5) Injections of cDNAs encoding for the human alpha3beta4, alpha3alpha5beta4, alpha4beta2, and alpha7 were performed in at least 95 oocytes were performed using a proprietary automated injection and receptor expression examined at least two days later. Oocytes were poked with two electrodes and their membrane potential maintained, unless indicated, at −80 mV throughout the experiment.
(§6) A protocol to determine agonistic activity in the oocytes expressing the nAChRs was developed. The cells were exposed to a series of increasing concentrations of a compound agonist for 10 seconds each at two minute intervals. The current evoked from exposure to the agonist at each concentration was recorded. For oocytes expressing alpha7 nAChRs, exposure to the agonist was reduced to 5 seconds. This process was repeated for each agonist tested against each type of nAChR expressing cell.
(§7) To evaluate the agonistic properties of compound 1 hemi-galactarate dihydrate a protocol of brief exposures to a series of growing concentrations of compound 1 hemi-galactarate dihydrate was used.
(§8) Agonist Preparation: See Example 1. […] The test concentration of acetylcholine chloride was 1280 micromolar.
as §5, with “Experimental Procedures: Injections” for “Injections”, “alpha4beta2, alpha4alpha6beta2,” for “alpha4beta2,”, “oocytes” for “oocytes were performed”, “injection device. Cellular” for “injection and”, “expression was” for “expression”
as §6, with “developed. Oocytes expressing a nAChR subtype were exposed to a brief test pulse of acetylcholine (1280 micromolar) while the holding current and response was evaluated. Cells displaying robust currents were washed for 90 seconds.” for “developed.”, “were then” for “were”, “nAChR” for “compound”, “intervals. The nAChR agonist test concentrations were 0.1, 0.3, 1, 3, 10, 30, 100, 300 (micromolar).” for “intervals.”

[4] = target: T3, human nAChR alpha3beta4 (Homo sapiens, UniProt P30926+P32297); test: as above; details: for agonist character: versus ACh response, mono-citrate
T3 construct: expressed in transfected cells; host or cells: Xenopus laevis oocytes (cDNA injection)
T3 sequence (P32297 32-505): as the sequence (P32297 32-505) above
T3 sequence (P30926 22-498): as the sequence (P30926 22-498) above
Procedure: as §1, §2, §3, §4, §5, §6, §7, §8
as §5, with “Experimental Procedures: Injections” for “Injections”, “alpha4beta2, alpha4alpha6beta2,” for “alpha4beta2,”, “oocytes” for “oocytes were performed”, “injection device. Cellular” for “injection and”, “expression was” for “expression”
as §6, with “developed. Oocytes expressing a nAChR subtype were exposed to a brief test pulse of acetylcholine (1280 micromolar) while the holding current and response was evaluated. Cells displaying robust currents were washed for 90 seconds.” for “developed.”, “were then” for “were”, “nAChR” for “compound”, “intervals. The nAChR agonist test concentrations were 0.1, 0.3, 1, 3, 10, 30, 100, 300 (micromolar).” for “intervals.”

[5] = target: T4, human nAChR alpha4beta2 (Homo sapiens, UniProt P17787+P43681); test: as above; details: for agonist character: versus ACh response
T4 construct: expressed in transfected cells; host or cells: Xenopus laevis oocytes (cDNA injection)
T4 sequence (P43681 29-627 limits assumed): as the sequence (P43681 29-627 limits assumed) above
T4 sequence (P17787 26-502): as the sequence (P17787 26-502) above
Procedure: as §1, §2, §3, §4, §5, §6, §7, §8
as §5, with “Experimental Procedures: Injections” for “Injections”, “alpha4beta2, alpha4alpha6beta2,” for “alpha4beta2,”, “oocytes” for “oocytes were performed”, “injection device. Cellular” for “injection and”, “expression was” for “expression”
as §6, with “developed. Oocytes expressing a nAChR subtype were exposed to a brief test pulse of acetylcholine (1280 micromolar) while the holding current and response was evaluated. Cells displaying robust currents were washed for 90 seconds.” for “developed.”, “were then” for “were”, “nAChR” for “compound”, “intervals. The nAChR agonist test concentrations were 0.1, 0.3, 1, 3, 10, 30, 100, 300 (micromolar).” for “intervals.”

[6] = target: T5, human nAChR alpha7 (Homo sapiens, UniProt P36544); test: as above; details: for percent of the maximal ACh-evoked current: at 300 μM (300 micromolar) agonist; for percent of the maximal ACh-evoked current / agonist character: mono-citrate; for agonist character: versus ACh response
T5 construct: expressed in transfected cells; host or cells: Xenopus laevis oocytes (cDNA injection)
T5 sequence (P36544 23-502): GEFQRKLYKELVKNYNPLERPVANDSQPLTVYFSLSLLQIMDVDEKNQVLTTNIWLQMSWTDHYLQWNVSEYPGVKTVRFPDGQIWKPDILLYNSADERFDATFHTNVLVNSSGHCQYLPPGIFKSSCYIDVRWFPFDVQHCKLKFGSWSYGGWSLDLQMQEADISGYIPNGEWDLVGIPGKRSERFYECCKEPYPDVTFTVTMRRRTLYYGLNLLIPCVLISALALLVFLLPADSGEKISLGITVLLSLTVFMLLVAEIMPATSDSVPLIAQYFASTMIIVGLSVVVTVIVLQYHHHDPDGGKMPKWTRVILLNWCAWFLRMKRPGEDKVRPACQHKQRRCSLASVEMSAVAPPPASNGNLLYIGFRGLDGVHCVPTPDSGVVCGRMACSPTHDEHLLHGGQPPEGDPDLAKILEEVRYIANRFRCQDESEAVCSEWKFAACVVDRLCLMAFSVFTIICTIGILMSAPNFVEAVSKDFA
Procedure: as §1, §2, §3, §4, §5, §6, §7, §8
as §5, with “Experimental Procedures: Injections” for “Injections”, “alpha4beta2, alpha4alpha6beta2,” for “alpha4beta2,”, “oocytes” for “oocytes were performed”, “injection device. Cellular” for “injection and”, “expression was” for “expression”
as §6, with “developed. Oocytes expressing a nAChR subtype were exposed to a brief test pulse of acetylcholine (1280 micromolar) while the holding current and response was evaluated. Cells displaying robust currents were washed for 90 seconds.” for “developed.”, “were then” for “were”, “nAChR” for “compound”, “intervals. The nAChR agonist test concentrations were 0.1, 0.3, 1, 3, 10, 30, 100, 300 (micromolar).” for “intervals.”

[7] = target: T6, human nAChR alpha4alpha6beta2 (Homo sapiens, UniProt P17787+P43681+Q15825); test: Agonist activity, two-electrode voltage clamp in Xenopus oocytes (Example 5); details: for agonist character: versus ACh response, mono-citrate
T6 construct: expressed in transfected cells; host or cells: Xenopus laevis oocytes (cDNA injection)
T6 sequence (P43681 29-627 limits assumed): as the sequence (P43681 29-627 limits assumed) above
T6 sequence (Q15825 26-494): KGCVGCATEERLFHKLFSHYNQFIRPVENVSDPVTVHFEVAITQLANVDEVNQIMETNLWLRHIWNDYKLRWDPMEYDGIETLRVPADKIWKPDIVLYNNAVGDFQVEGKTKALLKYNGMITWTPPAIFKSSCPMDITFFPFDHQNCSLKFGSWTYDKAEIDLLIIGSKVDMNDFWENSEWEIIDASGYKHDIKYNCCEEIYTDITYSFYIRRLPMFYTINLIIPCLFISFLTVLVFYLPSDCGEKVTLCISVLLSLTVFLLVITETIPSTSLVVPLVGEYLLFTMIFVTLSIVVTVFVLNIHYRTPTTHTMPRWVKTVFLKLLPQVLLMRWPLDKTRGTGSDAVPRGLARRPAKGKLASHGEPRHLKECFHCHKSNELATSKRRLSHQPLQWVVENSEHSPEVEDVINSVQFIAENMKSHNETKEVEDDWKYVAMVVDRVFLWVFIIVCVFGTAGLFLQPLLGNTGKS
T6 sequence (P17787 26-502): as the sequence (P17787 26-502) above
Procedure: as §1, §2, §3, §8
as §5, with “Experimental Procedures: Injections” for “Injections”, “alpha4beta2, alpha4alpha6beta2,” for “alpha4beta2,”, “oocytes” for “oocytes were performed”, “injection device. Cellular” for “injection and”, “expression was” for “expression”
as §6, with “developed. Oocytes expressing a nAChR subtype were exposed to a brief test pulse of acetylcholine (1280 micromolar) while the holding current and response was evaluated. Cells displaying robust currents were washed for 90 seconds.” for “developed.”, “were then” for “were”, “nAChR” for “compound”, “intervals. The nAChR agonist test concentrations were 0.1, 0.3, 1, 3, 10, 30, 100, 300 (micromolar).” for “intervals.”

[8] = presence vs absence of 1 μM PAM

- dependence of potentiation on the order of agonist and PAM application ([1]; agonist compound 1 hemi-galactarate dihydrate): independent on the exposure protocol
- maximal current evoked by compound 1 hemi-galactarate dihydrate [1, 8]: no significant increase
- shift of the concentration activation curve to compound 1 hemi-galactarate dihydrate [1, 8]: significant shift to the left
SMILES: N#Cc1cccc(-c2nc(-c3cccnc3)no2)c1 [NS-9283, 3-[3-(3-Pyridinyl)-1,2,4-oxadiazol-5-yl]benzonitrile]
- positive allosteric modulator activity in the presence of compound 1 hemi-galactarate dihydrate ([1]; 1 μM PAM): acts as a positive allosteric modulator; also recorded: potentiate the agonistic activity
- effect of PAM on recovery from varenicline tartrate desensitization ([2]; 300 μM varenicline tartrate 1 hour, 1 μM PAM, wash of 3 hours): failed to significantly modify the recovery time course
- effect of PAM on amplitude of the current evoked by varenicline tartrate ([2]; 300 μM varenicline tartrate, 1 μM PAM): enhanced the response
- effect of PAM on profile of compound 1 hemi-galactarate dihydrate desensitization and recovery ([2]; 1 mM agonist, co-application of 1 μM modulator): minimal effect

SMILES: C(=C\[C@H]1CCNC1)/c1cncnc1 [compound 1 citrate, (R)-5-((E)-2-pyrrolidin-3-ylvinyl)pyrimidine mono-citrate]
- EC50 ([3]; Example 5, read-out: EC50): 83 ± 9.05 µM
- agonist character ([3]; listed as Compound 1 citrate): almost as a full agonist
- agonist character [3]: almost full agonist
- EC50 ([4]; read-out: EC50): 34.9 ± 4.53 µM
- agonist character ([4]; listed as Compound 1 citrate): almost as a full agonist
- agonist character [4]: almost full agonist
- EC50 ([5]; Example 5, read-out: EC50): 13.5 ± 2.06 µM
- effect on the subsequent ACh-evoked current ([5]; after exposure to the agonist concentration series, mono-citrate): Significant inhibition
- agonist character ([5]; listed as Compound 1 citrate, mono-citrate): almost as a full agonist
- agonist character ([5]; mono-citrate): almost full agonist
- fraction of the maximal ACh-evoked current ([6]; 300 micromolar concentration): 25%
- EC50 ([6]; Example 5, only an estimation): 126 ± 28.5 µM
- percent of the maximal ACh-evoked current ([6]; listed as Compound 1 citrate): 25%
- percent of the maximal ACh-evoked current [6]: 25%
- agonist character ([6]; listed as Compound 1 citrate): poor agonist
- agonist character [6]: weak partial agonist
- EC50 [7]: 13.1 ± 3.68 µM
- agonist character ([7]; listed as Compound 1 citrate): almost as a full agonist
- agonist character [7]: almost full agonist
